“And” between values parts separate entries of the source, which are not always exact repeats. Identical values can stand only once. Each block holds one molecule with its values, some of them ahead of it.
What was measured:
hOAT1 = molecular target: T1, hOAT1 (Homo sapiens, UniProt Q4U2R8); assay: Time course and uptake kinetics of 6-CF in HEK-OAT1 cells
T1 sequence (Q4U2R8 1-563): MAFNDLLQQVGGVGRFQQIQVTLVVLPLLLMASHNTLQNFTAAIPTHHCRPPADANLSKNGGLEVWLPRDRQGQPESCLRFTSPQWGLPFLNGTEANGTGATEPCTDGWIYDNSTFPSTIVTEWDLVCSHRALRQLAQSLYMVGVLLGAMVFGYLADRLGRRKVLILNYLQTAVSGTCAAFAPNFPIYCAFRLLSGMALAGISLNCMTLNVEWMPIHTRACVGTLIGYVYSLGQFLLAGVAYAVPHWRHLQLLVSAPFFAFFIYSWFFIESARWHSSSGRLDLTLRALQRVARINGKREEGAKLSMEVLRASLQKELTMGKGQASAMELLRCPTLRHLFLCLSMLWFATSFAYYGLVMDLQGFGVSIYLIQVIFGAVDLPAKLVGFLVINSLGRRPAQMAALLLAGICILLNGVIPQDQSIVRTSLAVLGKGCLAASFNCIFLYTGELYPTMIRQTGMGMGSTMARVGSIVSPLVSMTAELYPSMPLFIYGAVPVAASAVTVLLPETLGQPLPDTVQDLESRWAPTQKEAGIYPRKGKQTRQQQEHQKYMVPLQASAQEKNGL

HEK-EV cells = assay: Time course of 6-CF uptake in HEK-EV cells; format: cell-based; set-up: unit not given beside the values
hOAT3 = molecular target: T2, hOAT3 (Homo sapiens, UniProt Q8TCC7); assay: Time course and uptake kinetics of 6-CF in HEK-OAT3 cells
T2 sequence (Q8TCC7 1-542): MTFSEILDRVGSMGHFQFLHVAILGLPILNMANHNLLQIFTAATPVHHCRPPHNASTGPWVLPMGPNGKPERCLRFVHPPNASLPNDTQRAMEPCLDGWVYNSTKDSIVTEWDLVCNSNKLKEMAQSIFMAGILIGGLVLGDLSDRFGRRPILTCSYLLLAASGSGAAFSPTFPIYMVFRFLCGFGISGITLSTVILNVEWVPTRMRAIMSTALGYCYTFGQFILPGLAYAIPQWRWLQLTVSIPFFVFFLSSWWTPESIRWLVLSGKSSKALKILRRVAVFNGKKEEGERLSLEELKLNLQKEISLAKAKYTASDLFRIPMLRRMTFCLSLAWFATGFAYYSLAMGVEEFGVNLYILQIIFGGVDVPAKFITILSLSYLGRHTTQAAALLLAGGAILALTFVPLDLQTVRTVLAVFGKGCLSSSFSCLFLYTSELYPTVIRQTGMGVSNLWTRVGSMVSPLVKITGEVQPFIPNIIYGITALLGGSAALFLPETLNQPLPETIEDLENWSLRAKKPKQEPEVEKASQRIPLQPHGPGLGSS

[1] = substrate: O=C(O)c1ccc(C(=O)O)c(-c2c3ccc(=O)cc-3oc3cc(O)ccc23)c1; assay: cells, lysate or membranes; details: pH 7.2
[2] = other: HEK-OAT1, 6-CF 0–500 μM, 4 min
[3] = other: HEK-OAT3, 6-CF 0–500 μM, 10 min

6-CF uptake, saturation curve (replicates) (hOAT1; HEK-OAT1, 6-CF 0.4882813 uM): 7.173 and 7.446 and 6.987 | 6-CF uptake, saturation curve (replicates) (hOAT1; HEK-OAT1, 6-CF 0.9765625 uM): 12.8274 and 13.23 and 13 | 6-CF uptake, saturation curve (replicates) (hOAT1; HEK-OAT1, 6-CF 1.953125 uM): 27.87 and 28.3406 and 28.05 | 6-CF uptake, saturation curve (replicates) (hOAT1; HEK-OAT1, 6-CF 3.90625 uM): 46.16 and 53.71 and 47.47 | 6-CF uptake, saturation curve (replicates) (hOAT1; HEK-OAT1, 6-CF 7.8125 uM): 70.1 and 79.19 and 68.4603 | 6-CF uptake, saturation curve (replicates) (hOAT1; HEK-OAT1, 6-CF 15.625 uM): 99.74 and 104.681 and 93.41 | 6-CF uptake, saturation curve (replicates) (hOAT1; HEK-OAT1, 6-CF 31.25 uM): 121.9009 and 125.5377 and 115.7964 | 6-CF uptake, saturation curve (replicates) (hOAT1; HEK-OAT1, 6-CF 62.5 uM): 137.2491 and 143.8246 and 138.2214 | 6-CF uptake, saturation curve (replicates) (hOAT1; HEK-OAT1, 6-CF 125 uM): 148.3736 and 150.9828 and 144.0527 | 6-CF uptake, saturation curve (replicates) (hOAT1; HEK-OAT1, 6-CF 250 uM): 164.0673 and 159.2171 and 152.7382 | 6-CF uptake, saturation curve (replicates) (hOAT1; HEK-OAT1, 6-CF 500 uM): 180.965 and 184.434 and 169.8854 | 6-CF uptake, time course (replicates) (hOAT1; HEK-OAT1, 1 min): 103.0408 and 111.2811 and 116.9642 | 6-CF uptake, time course (replicates) (hOAT1; HEK-OAT1, 2 min): 184.2101 and 188.6327 and 203.3025 | 6-CF uptake, time course (replicates) (hOAT1; HEK-OAT1, 4 min): 263.4748 and 273.8167 and 274.8526 | 6-CF uptake, time course (replicates) (hOAT1; HEK-OAT1, 6 min): 366.3584 and 347.2089 and 351.4604 | 6-CF uptake, time course (replicates) (hOAT1; HEK-OAT1, 8 min): 433.3665 and 398.0952 and 430.7222 | 6-CF uptake, time course (replicates) (hOAT1; HEK-OAT1, 10 min): 468.8556 and 433.6342 and 503.1246 | 6-CF uptake, time course (replicates) (hOAT1; HEK-OAT1, 15 min): 515.439 and 498.8523 | 6-CF uptake, time course (replicates) (hOAT3; HEK-OAT3, 0 min): -0.2934 and -0.3139 and -0.3557 | 6-CF uptake, saturation curve (replicates) (hOAT3; HEK-OAT3, 6-CF 0.4882813 uM): 0.3918 and 0.3329 and 0.4388 | 6-CF uptake, saturation curve (replicates) (hOAT3; HEK-OAT3, 6-CF 0.9765625 uM): 0.698 and 0.5037 and 0.6877 | 6-CF uptake, saturation curve (replicates) (hOAT3; HEK-OAT3, 6-CF 1.953125 uM): 1.795 and 1.575 and 1.458 | 6-CF uptake, saturation curve (replicates) (hOAT3; HEK-OAT3, 6-CF 3.90625 uM): 4.35 and 4.472 and 4.585 | 6-CF uptake, saturation curve (replicates) (hOAT3; HEK-OAT3, 6-CF 7.8125 uM): 6.975 and 7.312 and 7.453 | 6-CF uptake, saturation curve (replicates) (hOAT3; HEK-OAT3, 6-CF 15.625 uM): 11.68 and 13.8 and 13.42 | 6-CF uptake, saturation curve (replicates) (hOAT3; HEK-OAT3, 6-CF 31.25 uM): 16.87 and 19.83 and 17.42 | 6-CF uptake, saturation curve (replicates) (hOAT3; HEK-OAT3, 6-CF 62.5 uM): 24.87 and 28.11 and 27.05 | 6-CF uptake, saturation curve (replicates) (hOAT3; HEK-OAT3, 6-CF 125 uM): 31.12 and 34.21 and 34.22 | 6-CF uptake, saturation curve (replicates) (hOAT3; HEK-OAT3, 6-CF 250 uM): 38.59 and 48.68 and 49.93 | 6-CF uptake, saturation curve (replicates) (hOAT3; HEK-OAT3, 6-CF 500 uM): 59.67 and 68.36 and 60.32 | 6-CF uptake, time course (replicates) (hOAT3; HEK-OAT3, 1 min): 15.96 and 14.63 and 12.89 | 6-CF uptake, time course (replicates) (hOAT3; HEK-OAT3, 3 min): 23.66 and 23.83 and 22.4238 | 6-CF uptake, time course (replicates) (hOAT3; HEK-OAT3, 5 min): 30.9 and 31.16 and 28.05 | 6-CF uptake, time course (replicates) (hOAT3; HEK-OAT3, 7 min): 39.99 and 36.19 and 41.91 | 6-CF uptake, time course (replicates) (hOAT3; HEK-OAT3, 10 min): 50.24 and 52.458 and 60.541 | 6-CF uptake, time course (replicates) (hOAT3; HEK-OAT3, 15 min): 52.72 and 56.05 and 66.23 | 6-CF uptake, time course (replicates) (hOAT3; HEK-OAT3, 20 min): 78 and 76.09 and 111.922
Molecule: O=C(O)c1ccc(C(=O)O)c(-c2c3ccc(=O)cc-3oc3cc(O)ccc23)c1 [6-CF, 6-Carboxyfluorescein]
6-CF uptake, time course (replicates) (HEK-EV cells; EV (run with HEK-OAT3), 0 min): -0.296 and -0.1638 and -0.3041 | 6-CF uptake, time course (replicates) (HEK-EV cells; EV (run with HEK-OAT3), 1 min): 0.1864 and 0.1215 and 0.1926 | 6-CF uptake, time course (replicates) (HEK-EV cells; EV (run with HEK-OAT3), 3 min): 1.062 and 1.738 and 0.6624 | 6-CF uptake, time course (replicates) (HEK-EV cells; EV (run with HEK-OAT3), 5 min): 1.6 and 1.946 and 1.9 | 6-CF uptake, time course (replicates) (HEK-EV cells; EV (run with HEK-OAT3), 7 min): 3.081 and 4.38 and 4.257 | 6-CF uptake, time course (replicates) (HEK-EV cells; EV (run with HEK-OAT3), 10 min): 12.29 and 7.712 and 11.67 | 6-CF uptake, time course (replicates) (HEK-EV cells; EV (run with HEK-OAT3), 15 min): 22.75 and 12.81 and 21.0992 | 6-CF uptake, time course (replicates) (HEK-EV cells; EV (run with HEK-OAT3), 20 min): 40.6 and 70.13 and 42.87 | 6-CF uptake, time course (replicates) (HEK-EV cells; HEK-EV (run with HEK-OAT1), 1 min): 2.029 and 2.127 and 1.449 | 6-CF uptake, time course (replicates) (HEK-EV cells; HEK-EV (run with HEK-OAT1), 2 min): 3.517 and 2.496 | 6-CF uptake, time course (replicates) (HEK-EV cells; HEK-EV (run with HEK-OAT1), 4 min): 3.274 and 1.899 | 6-CF uptake, time course (replicates) (HEK-EV cells; HEK-EV (run with HEK-OAT1), 6 min): 2.9 and 5.179 and 2.231 | 6-CF uptake, time course (replicates) (HEK-EV cells; HEK-EV (run with HEK-OAT1), 8 min): 2.807 and 2.226 and 2.134 | 6-CF uptake, time course (replicates) (HEK-EV cells; HEK-EV (run with HEK-OAT1), 10 min): 6.849 and 3.392 | 6-CF uptake, time course (replicates) (HEK-EV cells; HEK-EV (run with HEK-OAT1), 15 min): 2.156 and 2.367 and 2.88

B1: hOAT1 (Homo sapiens) (protein)
chain: MAFNDLLQQVGGVGRFQQIQVTLVVLPLLLMASHNTLQNFTAAIPTHHCRPPADANLSKNGGLEVWLPRDRQGQPESCLRFTSPQWGLPFLNGTEANGTGATEPCTDGWIYDNSTFPSTIVTEWDLVCSHRALRQLAQSLYMVGVLLGAMVFGYLADRLGRRKVLILNYLQTAVSGTCAAFAPNFPIYCAFRLLSGMALAGISLNCMTLNVEWMPIHTRACVGTLIGYVYSLGQFLLAGVAYAVPHWRHLQLLVSAPFFAFFIYSWFFIESARWHSSSGRLDLTLRALQRVARINGKREEGAKLSMEVLRASLQKELTMGKGQASAMELLRCPTLRHLFLCLSMLWFATSFAYYGLVMDLQGFGVSIYLIQVIFGAVDLPAKLVGFLVINSLGRRPAQMAALLLAGICILLNGVIPQDQSIVRTSLAVLGKGCLAASFNCIFLYTGELYPTMIRQTGMGMGSTMARVGSIVSPLVSMTAELYPSMPLFIYGAVPVAASAVTVLLPETLGQPLPDTVQDLESRWAPTQKEAGIYPRKGKQTRQQQEHQKYMVPLQASAQEKNGL
Km [1, 2]: 10.86 ± 0.64 µM | Vmax [1, 2]: 168.5 ± 2.27 pmol/mg protein/min

B2: hOAT3 (Homo sapiens) (protein)
chain: MTFSEILDRVGSMGHFQFLHVAILGLPILNMANHNLLQIFTAATPVHHCRPPHNASTGPWVLPMGPNGKPERCLRFVHPPNASLPNDTQRAMEPCLDGWVYNSTKDSIVTEWDLVCNSNKLKEMAQSIFMAGILIGGLVLGDLSDRFGRRPILTCSYLLLAASGSGAAFSPTFPIYMVFRFLCGFGISGITLSTVILNVEWVPTRMRAIMSTALGYCYTFGQFILPGLAYAIPQWRWLQLTVSIPFFVFFLSSWWTPESIRWLVLSGKSSKALKILRRVAVFNGKKEEGERLSLEELKLNLQKEISLAKAKYTASDLFRIPMLRRMTFCLSLAWFATGFAYYSLAMGVEEFGVNLYILQIIFGGVDVPAKFITILSLSYLGRHTTQAAALLLAGGAILALTFVPLDLQTVRTVLAVFGKGCLSSSFSCLFLYTSELYPTVIRQTGMGVSNLWTRVGSMVSPLVKITGEVQPFIPNIIYGITALLGGSAALFLPETLNQPLPETIEDLENWSLRAKKPKQEPEVEKASQRIPLQPHGPGLGSS
Km [1, 3]: 112.9 ± 14.24 µM | Vmax [1, 3]: 71.89 ± 3.42 pmol/mg protein/min

Reference: paper PMC5446775, “Interactions of 172 plant extracts with human organic anion transporter 1 (SLC22A6) and 3 (SLC22A8): a study on herb-drug interactions” (PeerJ, 2017)
